Solubility data for two compounds are collected here from patent publication US6656942B2, “Orally active salts with tyrosine kinase activity” (Merck & Co., Inc., priority 2000, dated 2003).

What is called solubility is the concentration that dissolves in the medium under given conditions.

Counter-ions that a name gives are not always drawn.

Data set [1] in a line: Solubility of crystalline mesylate salts 1-11A and 1-11B. Format: physicochemical. Here is the method: The amorphous mesylate salt was recrystallized from 50:50 Ethanol:THF to give a crystalline powder (Salt 1-11A). The X-ray powder diffraction pattern (XRPD) of the recrystallized mesylate salt 1-11A (FIG. 2) is indicative of crystalline material with multiple diffraction peaks between 5° and 30° 2-theta.
A second batch of crystalline mesylate salt (Salt 1-11B) was obtained by the following procdeure. To a stirred suspension of 1-11 (4.026 g, 9.22 mmol) in MeOH was slowly added at room temperature (RT) one equivalent of a 0.3M solution of methanesulfonic acid (30.73 mL). After all the solid had dissolved, the mixture was filtered into a flask and concentrated under reduced pressure while cooled to about 10° C. The resulting solid was suspended with 200 mL of ethylacetate, filtered, and dried to afford the mesylate salt. […] This crystalline form is different by XRPD than the one recrystallized from the amorphous salt in EtOH/THF (Salt 1-11A).

Data set [2] is described as follows: Solubility of HCl salt 1-11D suspended in solvents for 7 days at room temperature. The data set is classed as physicochemical. To be noted: RT for 7 days. Here is the method: HCl salt 1-11D is also crystalline as witnessed by the X-ray powder diffraction pattern of the material, having multiple diffraction peaks between 5° and 30° 2-theta. […] (rate of 10° C./min). The compound is birefringent under plane polarized light. It is needle-shaped particles of approximately 5-25 micron. The solubility of salt 1-11D was measured in water and various organic solvents. Table VI below summarizes the solubility of the 1-11D suspended in various solvents for 7 days at room temperature.

For `CS(=O)(=O)N1CCN(Cc2ccc3[nH]c(-c4cc5ccccc5[nH]c4=O)cc3c2)CC1` [Salt 1-11B], the solubility in data set [1] (Acetonitrile) came out at 0.03 mg/mL; in data set [1] (Isopropanol), 0.003 mg/mL; in data set [1] (Water), 0.09 mg/mL.
Regarding `CS(=O)(=O)N1CCN(Cc2ccc3[nH]c(-c4cc5ccccc5[nH]c4=O)cc3c2)CC1` [Salt 1-11D], the solubility is reported as 4.34 mg/mL in data set [2] (Aqueous ETOH); 3.99 mg/mL in data set [2] (Aqueous IPA); 0.13 mg/mL in data set [2] (Ethanol); 0.057 mg/mL in data set [2] (Isopropanol); 0.62 mg/mL in data set [2] (Water).
